Test results reported in patent publication US20250008983A1, “COMPOSITIONS CONTAINING PEROXYACIDS TO CONTROL PATHOGEN GROWTH IN ANIMAL FEED AND RELATED METHODS” (KEMIN INDUSTRIES, INC., priority 2023, published 2025).

Tested on: Salmonella enterica isolated from layer feed
Experiment: Preliminary in vitro feed assay, Salmonella count in contaminated feed over 21 days
Format: cell-based
Details: 15 kg/ton; pre-treatment Day 0
Method: Preparation of the treatment. Perpropionic acid, peracetic acid, mixture of peroctanoic acid and perdecanoic acid (PC8/PC10) and Sal CURB products were used without any further dilution or mixing. The peroxy mix was prepared by mixing peracetic and perpropionic acid in 1:1 weight ratio. Briefly, 1.0 g of peroxy mix was prepared by weighing 0.5 g of peracetic acid into 0.5 g of perpropionic acid. The mixture was mixed well prior to usage. Similar procedure was followed in the preparation of 3% sulphuric acid (where […] of water) and peroxy mix with ester (where 0.9 g of peroxy mix (prepared with peracetic and propionic acid) was mixed with 0.1 g of propylene glycol propionate esters). […] Briefly, 1 mL of 75% phosphoric acid was added to 10 mL of Pro-Oxine solution and mixed well. The mixture is covered and let to stand for 10 mins prior to usage.
Preparation of stock feed inoculum. The researchers prepared contaminated feed from known methods, where Salmonella enterica isolated from layer feed was revived from the glycerol stock by plating a loopful of culture onto the TSAYE (i.e., tryptone soya agar supplemented with 0.6% yeast extract (CM0131B; Oxoid) prepared as per recommended) and incubate for 18-24 hours at 37° C. Following which, the colonies were collected aseptically with saline solution (i.e., 0.9% sodium chloride (V800372; Sigma-Aldrich) prepared in deionized water), yielding approximately 5 mL of biomass suspension. The biomass suspension was diluted accordingly to meet the contamination level required for the stock inoculum. No dilution was required for high contamination level of ca. 10^7 cfu/g whereas biomass suspension was diluted 1000 times to achieve lower contamination level of ca. 10^4 cfu/g in the stock inoculum. The stock feed inoculum was prepared by adding the biomass suspension (5 mL) into 100 g of sterile feed (made up with 7:3 ground corn and soybean, autoclaved at 121° C. for one hour and dried for 24 hours at 65° C.) with a syringe and needle, and homogenously mixed after. The stock feed inoculum was stored at 25° C. for a week. Salmonella count of the stock inoculum was determined using conventional plating method with XLD agar (i.e., Xylose lysine deoxycholate (CM0469B; Oxoid)) and BPW (i.e., buffered peptone water (CM0509B; Oxoid)) prior to usage. Briefly, three grams of stock feed inoculum was weighed into a 50 mL conical tube, diluted with 27 mL of BPW, homogenously mixed and left to stand for 30 minutes. The feed suspension was then serial diluted to the appropriate dilutions. An aliquot of 0.1 mL of the feed suspension was plated onto the agar at each dilution and incubated at 37° C. for 18-24 hours prior to enumeration. Plating was carried out in triplicates. Blank stock feed was prepared by adding 5 mL of saline into 100 g of sterile feed.
Preparation of the feed inoculum. The stock feed inoculum was diluted approximately 100 times with sterile feed where three grams of stock inoculum was added into 307 g of sterile feed and kept at 37° C. for 24 hours. The Salmonella count of the feed was determined prior to treatment. Briefly, 90 mL of BPW was added into 10 g of feed sample in a sterile bag (10^−1 dilution). The mixture was homogenously mixed with a stomacher at medium speed for three minutes and left to stand for 30 minutes. The feed supernatant was serial diluted to appropriate dilutions for plating. The plates were incubated at 37° C. for 18-24 hours prior to counting. If low Salmonella count was expected, the sample size was increased to 1 mL by plating 300, 300 and 400 uL onto three plates in triplicates for […] detection limit (10 cfu/g). Blank feed was prepared by adding three grams of blank stock feed into 307 g of sterile feed. In addition, an extra contaminated feed was prepared as a control.
Treatment of contaminated feed. […]

## CCC(=O)OO [Perpropionic acid, perpropionic acid]
  Salmonella count: 5.62 log cfu/g
